Assay results: patent US7485326B2, “Oral microemulsion composition comprising biphenyldimethyldicarboxylate and silybin” (Hanmi Pharm Co., Ltd., priority 2003, dated 2009)

Key:
[1] = tested on: liver damaged by CCl4; assay: Therapeutic effect on the liver damaged by carbon tetrachloride (Test Example 1); format: in vivo, Sprague Dawley rats; conditions: serum
Experimental: The therapeutic effect of the inventive oral microemulsion composition on the liver damaged by CCl4 was examined as follows.
Thirty-six 4 to 5-week old male Sprague Dawley rats were divided into six groups each consisting of 6 rats having an average body weight of 202±5g. The rats were acclimated to the cage environment set at 23±2° C. and 55±5% relative humidity. Then 50% (v/v) solution of carbon tetrachloride in corn oil was intraperitoneally administered to each rat of five experimental groups (Groups 1 to 5) at a dose of 0.75 ml/kg, twice a week (monday and friday) to induce hepatotoxicity.
The rats of Group 1 (negative control) were not treated with any therapeutic drug after the CCl4 injection. The rats of Group 2 (positive control) were orally administered with BDD suspended in 1% (w/v) CMC (carboxymethyl cellulose) once a day, six times a week after the CCl4 injection, in an amount corresponding to 25 mg/kg of BDD; the rats of Group 3, with a Carduus marianus extract suspended in 1% (w/v) CMC, in an amount corresponding to 175 mg/kg of the Carduus marianus extract (52.5 mg/kg as silybin); and the rats of Group 4, with a simple mixture of BDD and Carduus marianus extract suspended in 1% (w/v) CMC, in an amount corresponding to 25 mg/kg of BDD and 175 mg/kg of the Carduus marianus extract. The rats of Group 5 were orally administered with the formulation of Example 3 once a day, six times a week, in an amount corresponding to 3 mg/kg of BDD and 175 mg/kg of the Carduus marianusextract; and the rats of Group 6 (normal group) were not subjected to CCl4injection and no therapeutic drugs were administered thereto.
Four weeks after the administration, the rats were sacrificed and serum samples were taken according to a preset schedule. The serum ALT (alanine aminotransferase) and AST (aspartate aminotransferase) levels were measured in accordance with a conventional method, and the results are shown in Tables 1 and 2, respectively.

[2] = tested on: fatty liver induced by dl-ethionine; assay: Therapeutic effect on the dl-ethionine-induced fatty liver (Test Example 3); format: in vivo, Sprague Dawley rats
Experimental: In order to examine the therapeutic effect of the inventive oral microemulsion composition, a test to measure the activity of restoring fatty liver induced by dl-ethionine was conducted as follows.
Six groups of rats, each consisting of 6 rats were prepared by the procedure of Test Example 1. A 2% (w/v) dl-ethionine saline solution was subcutaneously injected to each rat of five experimental groups (Groups 1 to 5) at a dosage of 200 mg/kg, twice a week to induce fatty liver.
The rats of Group 1 (negative control) were not treated with any therapeutic drug after the ethionine injection. The rats of Group 2 (positive control) were orally administered with BDD suspended in 1% (w/v) CMC once a day, five times a week after the ethionine injection, in an amount corresponding to 25 mg/kg of BDD; the rats of Group 3, with the Carduus marianus extract suspended in 1% (w/v) CMC, in an amount corresponding to 175 mg/kg of the Carduus marianus extract (52.5 mg/kg as silybin); and the rats of Group 4, with a simple mixture of BDD and Carduus marianusextract suspended in 1% (w/v) CMC, in an amount corresponding to 25mg/kg of BDD and 175 mg/kg of the Carduus marianus extract. The rats of Group 5 were orally administered with the formulation of Example 3 once a day, five times a week, in an amount corresponding to 3 mg/kg of BDD and 175 mg/kg of the Carduus marianus extract; and the rats of Group 6 (normal group) received neither ethionine injection nor any therapeutic drug.
One week after the administration, each rat was sacrificed, and the liver was extracted therefrom. The extracted liver was washed with saline, soaked in a 4-fold volume of potassium phosphate buffer (pH 7.5), and homogenized with a teflone-glass homogenizer. The homogenized liver was subjected to centrifugation at 600×g for 10 minutes to obtain a supernatant, which was subjected to centrifugations at 10,000×g for 20minutes, and then at […], to obtain a supernatant.
Then, the total cholesterol and triglyceride levels of each liver sample were measured by employing the supernatant in accordance with a conventional method, and the results are shown in Tables 5 and 6, respectively.

[3] = CCl4-treated rats, oral once a day six times a week, four weeks, BDD 25 mg/kg, extract 175 mg/kg, Example 3: 3 mg/kg BDD + 175 mg/kg extract
[4] = versus CCl4 control Group 1, four weeks
[5] = dl-ethionine-treated rats, oral once a day five times a week, one week, BDD 25 mg/kg, extract 175 mg/kg, Example 3: 3 mg/kg BDD + 175 mg/kg extract
[6] = versus ethionine control Group 1, one week

`COC(=O)c1cc(OC)c2c(c1-c1c(C(=O)OC)cc(OC)c3c1OCO3)OCO2` [BDD, biphenyldimethyldicarboxylate] was tested, and the “ALT (average concentration ± standard deviation)” value [1, 3] was 137.7 ± 19.5 SF U/ml, the “AST (average concentration ± standard deviation)” value [1, 3] was 163.3 ± 4.5 SF U/ml and the “Ratio of ALT level to a control” value [1, 4] was 91.7%. For the same compound, the “Ratio of AST level to a control” value [1, 4] was 95.2%, the “Total Cholesterol (average concentration ± standard deviation)” value [2, 5] was 22.0 ± 1.9 mg/g and the “Triglyceride (average concentration ± standard deviation)” value [2, 5] was 10.1 ± 0.5 mg/g. For the same compound, the “Ratio of cholesterol level to a control” value [2, 6] was 91.3% and the “Ratio of triglylceride level to a control” value [2, 6] was 72.7%.
